Results: patent publication US6992079B2, “Substituted 11-phenyl-dibenzazepine compounds useful for the treatment or prevention of diseases characterized by abnormal cell proliferation” (President Fellows of Harvard College, priority 1997, dated 2006)
Where two headings read alike, the source gives them in different places.

Columns and labels:
[1] = system: A2058 metastatic melanoma; assay: Mouse xenograft tumor growth; format: in vivo, CD-1 nude mice
Method: NCI-A2058 human melanoma cell line was grown as monolayer culture in Minimum essential medium (D-MEM) supplemented with 10% fetal bovine serum (FBS), 0.1 mM non-essential amino acid, 1.0 mM sodium pyruvate, 100U/ml penicillin, 100 μg/ml streptomycin and 0.25 μg/ml amphotericin B and L-alanyl-1-glutamine (2 mM) at 37° C. in an atmosphere of 5% CO2 in air. The tumor cells were routinely subcultured twice weekly by trypsin-EDTA treatment. The cells were harvested from subconfluent logarithmically growing culture by treatment with typsin-EDTA and counted for tumor inoculation.
An acclimation period of at least 7 days were allowed between animal receipt and commence of tumor inoculation. When the female CD-1 nude mice were more than 6-7 weeks of age (20-25 g), each mouse was subcutaneously injected with 5.0×10^6 NCI-A2058 human melanoma cells in 0.1 ml of PBS solution at the right flank of the mice to induce tumor growth.

SK-MEL-5 = assay: In-Vitro Testing SRB panel: Melanoma; format: cell-based; conditions: SK-MEL-5, 48 h
NCI/ADR-RES = assay: In-Vitro Testing SRB panel: Breast Cancer; format: cell-based; conditions: 48 h
MDA-MB-231/ATCC = assay: In-Vitro Testing SRB panel: Breast Cancer; format: cell-based
CARI-1 = assay: In-Vitro Testing SRB panel: Renal Cancer; format: cell-based; conditions: 48 h
NCI-H226 = format: cell-based; conditions: NCI-H226, 48 h
SF-268 = assay: In-Vitro Testing SRB panel: CNS Cancer; format: cell-based; conditions: SF-268, 48 h
786-0 = assay: In-Vitro Testing SRB panel: Renal Cancer; format: cell-based; conditions: 786-0, 48 h
RL-60 (TS) = assay: In-Vitro Testing SRB panel: Leukemia; format: cell-based; conditions: 48 h
[2] = system: squamous cell carcinoma (KLN-205) cells; assay: Tumor growth in murine squamous cell carcinoma model; format: in vivo, mouse
UACC-62 = assay: In-Vitro Testing SRB panel: Melanoma; format: cell-based; conditions: UACC-62, 48 h
[3] = system: NIH 3T3 mouse fibroblast cells; assay: Mitogenic assay (mitogen-induced cell proliferation); format: cell-based
SK-OV-3 = assay: In-Vitro Testing SRB panel: Ovarian Cancer; format: cell-based; conditions: SK-OV-3, 48 h
[4] = system: H209 small lung cell carcinoma; assay: Mouse xenograft tumor growth; format: in vivo, SCID mice
UACC-257 = assay: In-Vitro Testing SRB panel: Melanoma; format: cell-based; conditions: UACC-257, 48 h
SR = assay: In-Vitro Testing SRB panel: Leukemia; format: cell-based; conditions: 48 h
ERVX = conditions: 48 h
[5] = Homo sapiens, read-out: LC50 (the source's name)

O=C(c1ccc([N+](=O)[O-])cc1)N1Cc2ccccc2C(c2ccccc2Cl)c2ccccc21 (stereo not shown) [Compound 28, N-(4′-Nitrobenzoyl)-11-(2′-chlorophenyl)-5,6-dihydro-11H-dibenz[b,e]azepine]
tumor growth [1]: significantly inhibited tumor growth | GI50 (SK-MEL-5; Homo sapiens): 0.529 µM | CC50 (SK-MEL-5; [5]): > 100 µM | TGI (SK-MEL-5): 1.74E−05 Molar | Percent Growth (SK-MEL-5; log10 conc −4.0 Molar): −25% | Percent Growth (SK-MEL-5; log10 conc −5.0 Molar): 8% | Percent Growth (SK-MEL-5; log10 conc −6.0 Molar): 40% | Percent Growth (SK-MEL-5; log10 conc −7.0 Molar): 76% | Percent Growth (SK-MEL-5; log10 conc −8.0 Molar): 84% | TGI (NCI/ADR-RES): >1.00E−04 Molar | GI50 (NCI/ADR-RES; Homo sapiens): 3.22 µM | CC50 (NCI/ADR-RES; [5]): > 100 µM | Percent Growth (NCI/ADR-RES; log10 conc −4.0 Molar): 20% | Percent Growth (NCI/ADR-RES; log10 conc −5.0 Molar): 27% | Percent Growth (NCI/ADR-RES; log10 conc −6.0 Molar): 74% | Percent Growth (NCI/ADR-RES; log10 conc −7.0 Molar): 105% | Percent Growth (NCI/ADR-RES; log10 conc −8.0 Molar): 97% | GI50 (MDA-MB-231/ATCC; Homo sapiens, MDA-MB-231, 48 h): 4.94 µM | CC50 (MDA-MB-231/ATCC; Homo sapiens, MDA-MB-231/ATCC, 48 h, read-out: LC50 (the source's name)): > 100 µM | TGI (MDA-MB-231/ATCC; MDA-MB-231/ATCC, 48 h): >1.00E−04 Molar | Percent Growth (MDA-MB-231/ATCC; MDA-MB-231/ATCC, log10 conc −4.0 Molar, 48 h): 22% | Percent Growth (MDA-MB-231/ATCC; MDA-MB-231/ATCC, log10 conc −5.0 Molar, 48 h): 36% | Percent Growth (MDA-MB-231/ATCC; MDA-MB-231/ATCC, log10 conc −6.0 Molar, 48 h): 72% | Percent Growth (MDA-MB-231/ATCC; MDA-MB-231/ATCC, log10 conc −7.0 Molar, 48 h): 96% | Percent Growth (MDA-MB-231/ATCC; MDA-MB-231/ATCC, log10 conc −8.0 Molar, 48 h): 103% | TGI (CARI-1; CARI-1): >1.00E−04 Molar | Percent Growth (CARI-1; CARI-1, log10 conc −4.0 Molar): 22% | Percent Growth (CARI-1; CARI-1, log10 conc −5.0 Molar): 40% | Percent Growth (CARI-1; CARI-1, log10 conc −6.0 Molar): 61% | Percent Growth (CARI-1; CARI-1, log10 conc −7.0 Molar): 91% | Percent Growth (CARI-1; CARI-1, log10 conc −8.0 Molar): 94% | GI50 (CARI-1; Homo sapiens): 3.26 µM | CC50 (CARI-1; Homo sapiens, CARI-1, read-out: LC50 (the source's name)): > 100 µM | GI50 (NCI-H226; Homo sapiens): 7.96 µM | CC50 (NCI-H226; [5]): > 100 µM | TGI (NCI-H226): >1.00E−04 Molar | Percent Growth (NCI-H226; log10 conc −4.0 Molar): 33% | Percent Growth (NCI-H226; log10 conc −5.0 Molar): 48% | Percent Growth (NCI-H226; log10 conc −6.0 Molar): 66% | Percent Growth (NCI-H226; log10 conc −7.0 Molar): 83% | Percent Growth (NCI-H226; log10 conc −8.0 Molar): 90% | GI50 (SF-268; Homo sapiens): 1.66 µM | CC50 (SF-268; [5]): > 100 µM | TGI (SF-268): >1.00E−04 Molar | Percent Growth (SF-268; log10 conc −4.0 Molar): 19% | Percent Growth (SF-268; log10 conc −5.0 Molar): 34% | Percent Growth (SF-268; log10 conc −6.0 Molar): 55% | Percent Growth (SF-268; log10 conc −7.0 Molar): 81% | Percent Growth (SF-268; log10 conc −8.0 Molar): 94% | TGI (786-0): >1.00E−04 Molar | Percent Growth (786-0; log10 conc −4.0 Molar): 27% | Percent Growth (786-0; log10 conc −5.0 Molar): 31% | Percent Growth (786-0; log10 conc −6.0 Molar): 51% | Percent Growth (786-0; log10 conc −7.0 Molar): 102% | Percent Growth (786-0; log10 conc −8.0 Molar): 100% | GI50 (786-0; Homo sapiens): 1.16 µM | CC50 (786-0; [5]): > 100 µM | GI50 (RL-60 (TS); Homo sapiens): 0.489 µM | CC50 (RL-60 (TS); Homo sapiens, RL-60 (TS), read-out: LC50 (the source's name)): > 100 µM | TGI (RL-60 (TS); RL-60 (TS)): 7.71E−05 Molar | Percent Growth (RL-60 (TS); RL-60 (TS), log10 conc −4.0 Molar): 1% | Percent Growth (RL-60 (TS); RL-60 (TS), log10 conc −5.0 Molar): 5% | Percent Growth (RL-60 (TS); RL-60 (TS), log10 conc −6.0 Molar): 41% | Percent Growth (RL-60 (TS); RL-60 (TS), log10 conc −7.0 Molar): 71% | Percent Growth (RL-60 (TS); RL-60 (TS), log10 conc −8.0 Molar): 76% | cyclin D1 and PCNA expression in vivo ([2]; KLN induced tumors): abrogated cyclin D1 and PCNA expression | tumor growth ([2]; KLN-205, subcutaneous injection or oral administration of 80 mg/kg/day for 30 days): significantly inhibited tumor growth | GI50 (UACC-62; Homo sapiens): 0.363 µM | CC50 (UACC-62; [5]): > 100 µM | Percent Growth (UACC-62; log10 conc −4.0 Molar): 0% | Percent Growth (UACC-62; log10 conc −5.0 Molar): 22% | Percent Growth (UACC-62; log10 conc −6.0 Molar): 45% | Percent Growth (UACC-62; log10 conc −7.0 Molar): 57% | Percent Growth (UACC-62; log10 conc −8.0 Molar): 82% | IC50 ([3]; NIH3T3): 0.04 to 0.5 µM | inhibition at 10 µM ([3]; NIH3T3, 10 μM compound): 99% | GI50 (SK-OV-3; Homo sapiens): 8.31 µM | CC50 (SK-OV-3; [5]): > 100 µM | TGI (SK-OV-3): >1.00E−04 Molar | Percent Growth (SK-OV-3; log10 conc −4.0 Molar): 36% | Percent Growth (SK-OV-3; log10 conc −5.0 Molar): 47% | Percent Growth (SK-OV-3; log10 conc −6.0 Molar): 79% | Percent Growth (SK-OV-3; log10 conc −7.0 Molar): 97% | Percent Growth (SK-OV-3; log10 conc −8.0 Molar): 97% | tumor growth [4]: significantly inhibited tumor growth | GI50 (UACC-257; Homo sapiens): 0.441 µM | CC50 (UACC-257; [5]): > 100 µM | TGI (UACC-257): >1.00E−04 Molar | Percent Growth (UACC-257; log10 conc −4.0 Molar): 6% | Percent Growth (UACC-257; log10 conc −5.0 Molar): 9% | Percent Growth (UACC-257; log10 conc −6.0 Molar): 35% | Percent Growth (UACC-257; log10 conc −7.0 Molar): 78% | Percent Growth (UACC-257; log10 conc −8.0 Molar): 81% | TGI (SR): >1.00E−04 Molar | GI50 (SR; Homo sapiens): 0.643 µM | CC50 (SR; [5]): > 100 µM | Percent Growth (SR; log10 conc −4.0 Molar): 21% | Percent Growth (SR; log10 conc −5.0 Molar): 30% | Percent Growth (SR; log10 conc −6.0 Molar): 42% | Percent Growth (SR; log10 conc −7.0 Molar): 85% | Percent Growth (SR; log10 conc −8.0 Molar): 76% | TGI (ERVX; ERVX): >1.00E−04 Molar | Percent Growth (ERVX; ERVX, log10 conc −4.0 Molar): 23% | Percent Growth (ERVX; ERVX, log10 conc −5.0 Molar): 24% | Percent Growth (ERVX; ERVX, log10 conc −6.0 Molar): 51% | Percent Growth (ERVX; ERVX, log10 conc −7.0 Molar): 93% | Percent Growth (ERVX; ERVX, log10 conc −8.0 Molar): 85% | GI50 (ERVX; Homo sapiens): 1.13 µM | CC50 (ERVX; Homo sapiens, read-out: LC50): > 100 µM
